Laboratory results: patent US20090275503A1, “DIASTEREOMERIC PEPTIDES FOR MODULATING T CELL IMMUNITY” (Yeda Research and Developent Co., Ltd. at the Weizman …, priority 2005, published 2009)
Non-standard residues stand in square brackets, D forms with d. No end group written: not given here.

Key:
TCR = experiment: Fluorescence microscopy: co-localization and fluorescence energy transfer with TCR on activated A2b T cells; format: binding, rat
Experimental: Activated A2b T cells (van Eden et al., 1988) (10^5 cells/sample) were incubated in 100 μl of PBS containing Para-formaldehyde 4% for 15 min on ice. The samples were then washed with cold PBS and centrifuged for 7 min at 1100 rpm. PBS containing BSA 1% was then added at room temperature to prevent non-specific binding. After 30 min FITC-labeled antibody against TCR was added at dilution of 1:100 and incubated for 2.5 hr. For co-localization of TCR with the peptide, Rhodamine 2D-CP was added at a final concentration of 1 μM (stock in DMSO) and incubated for 5 min. Sample were then washed once with PBS and loaded on a microscope slide.
The cells were then observed under a fluorescent confocal microscope. […] Fluorescence data was collected from 505-525 nm. […] Fluorescence data was collected from 560 nm and up.
Fluorescence energy transfer between the FITC (donor) and rhodamine (acceptor) was detected as an increase in FITC fluorescence in an area where the rhodamine probe was bleached. […] To verify that the increase in FITC fluorescence is not due to auto fluorescence, bleaching was performed using the 488 nm laser first and only then at 543 nm. […]
To confirm these co-localization results, the inventors performed fluorescence energy transfer experiments between Rhodamine 2D-CP and αTCR-FITC. […] To rule out auto-fluorescence as a source of increased signal in the […] range, two controls were used. […]

LNC from Mt primed rats = experiment: T-cell proliferation of LNC from Mt-immunized rats activated with PPD or Mt176-90 (Part A); format: cell-based, rat
BALB/c mice = experiment: Delayed type hypersensitivity to oxazalone in mice; format: in vivo, mouse
Experimental: Groups of 5 female inbred BALB/c mice (The Jackson Laboratory) were sensitized on the shaved abdominal skin with 100 μl of 2% Oxazalone dissolved in acetone/olive oil [4:1 (vol/vol)] applied topically. DTH sensitivity was elicited 5 days later by challenging the mice with 20 μl of 0.5% Oxazalone in acetone/olive oil, 10 μl administered topically to each side of the ear. A constant area of the ear was measured immediately before challenge and 24 h after challenge with a Mitutoyo engineer's micrometer. The individual measuring ear swelling was unaware of the identity of the groups of mice. The DTH reaction is presented as the increment of ear swelling after challenge expressed as the mean±SEM in units of 10-2 mm. One hour after the challenge the mice's ears were treated topically with either all-L CP or with 2D-CP, both dissolved in 40 μl DMSO. The activity of the peptide treatments was compared to treatment with DMSO alone for “untreated mice” and Dexamethasone (100 μg/ml in saline) as a positive control.
To test whether TCR trans-membrane peptides could inhibit the elicitation of existing DTH reactivity, groups of naïve BALB/c mice were sensitized to 2% oxazalone. Five days later, the mice were challenged with 0.5% oxazalone administered to the ear. An hour after the challenge, the mice were treated with Dimethylsulfoxide (DMSO), all-L CP 150 μg (6 mg/kg) in DMSO, 2D-CP 150 μg (6 mg/kg) in DMSO, or dexamethasone, applied topically. On the following day, ear thickness was measured the swelling of DMSO treated mice (0.33±0.01 mm) was compared to that of mice treated with all-L CP (0.30±0.01 mm), 2D-CP (0.27±0.01 mm) and Dexamethasone (0.15±0.02 mm). […] Thus, 2D-CP can inhibit a T-cell mediated immune reaction in subjects already sensitized to the antigen.

rat TCR = experiment: Co-immunoprecipitation of fluorescence-labeled peptides with TCR molecules; format: binding; settings: Rho-labeled peptides, activated A2b T cells
Experimental: Activated A2b T cells (2×10^6) were cultured for 1 hr at 37° C. in the presence of CP or 2D-CP (25 μg/ml), or 2G-CP, and lysed for 15 min on ice in 0.1 ml lysis buffer (Adachi et al., 1996). Insoluble material was removed by centrifugation at 10.000 g for 10 min at 4° C. The lysate was then incubated overnight with Protein A-plus Agarose beads (Santa Cruz Biotechnology Inc., Santa Cruz, Calif., USA) bound to antibodies to the rat TCR or MHC class 1. The antibodies reactive against the rat TCR (clone R73) or HSP60 (clone LKI) were purified from the respective hybridomas at our lab; antibodies to rat CD28, actin and the rat MHC class 1 were purchased from Serotec (Oxford, UK). After an overnight incubation at 4° C., the beads were washed with lysis buffer, boiled for 10 minutes and the protein supernatant run in a 4-20% SDS-PAGE. The presence of co-immunoprecipitated peptide was detected by the Typhoon 9400 variable mode imager.
Next, co-immunoprecipitation experiments were performed. The affinity of the TCR/CP, the TCR/2D-CP and TCR/2G-CP interactions were compared by performing a series of co-precipitation experiments using different concentrations of Rho-labeled CP, 2D-CP and 2G-CP peptides.

With “GLRILLLKV [2D-CP] (GL[dR]ILLL[dK]V-NH2; also: rhodamine label, position not given here) [CP diastereomer]” the “Co-localization with the TCR on the T-cell membrane” value (TCR; rhodamine-labeled peptide 1 μM, αTCR-FITC, activated A2b T cells) was “co-localizes with the TCR”, the “Fluorescence energy transfer between rhodamine peptide and αTCR-FITC after bleaching at 543 nm” value (TCR; rhodamine-labeled peptide, point bleach 6 sec) was “significant increase in the fluorescence of the αTCR-FITC” and the “Inhibition of T-cell proliferation to PPD and to Mt176-90” value (LNC from Mt primed rats; LNC, 72 hr, 3H-thymidine incorporation) was “inhibited T-cell proliferation to PPD and to Mt176-90 in a dose-dependent manner”. For the same sequence, the “Inhibition of T-cell proliferation compared with all-L CP” value (LNC from Mt primed rats; at lower concentrations, p<0.02 (FIG. 3B)) was “somewhat greater”, the “Reduction in ear swelling compared with all-L CP” value (BALB/c mice; 150 μg (6 mg/kg) topical in DMSO) was “twice the reduction” and the Ear swelling (BALB/c mice; topical treatment 1 hr after oxazalone challenge, peptides 150 μg (6 mg/kg) in DMSO, measured following day) was 0.27±0.01 mm. The “Co-precipitation with the TCR” value (rat TCR) was “can be co-precipitated with the TCR”.
